PubChem BioAssay AID256 (DTP/NCI, 2004)
Several values for one entry are separate records, joined by “and”; a condition that tells them apart may be missing. Equal entries are not always repeated. Inconclusive results and toxic doses are left out.

Test system: CD2F1 mice, L1210 leukemia ip, survival T/C
Experiment: NCI In Vivo Anticancer Drug Screen. Data for tumor model L1210 Leukemia (intraperitoneal) in CD2F1 (CDF1) mice
Settings: higher = longer survival
Outline: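 Each value reflects a quotient of treated over vehicle control outcomes in mice with a transplanted tumor.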

[1] = endpoint: mean survival time, dose: 100.0 mg/kg/injection, schedule: Q04DX003 (ip), vehicle: saline with Tween-80
[2] = endpoint: mean survival time, dose: 200.0 mg/kg/injection, schedule: Q04DX003 (ip), vehicle: saline with Tween-80
[3] = endpoint: mean survival time, dose: 400.0 mg/kg/injection, schedule: Q04DX003 (ip), vehicle: saline with Tween-80
[4] = endpoint: mean survival time, dose: 50.0 mg/kg/injection, schedule: Q01DX009 (ip), vehicle: saline with Tween-80

Question: How did the T/C (endpoint: median survival time, dose: 3.12 mg/kg/injection, schedule: Q04DX003 (ip), vehicle: saline) turn out when `O=C(O)C(O)C(O)C(OC1OC(CO)C(O)C(O)C1O)C(O)CO.O=C(O)C(O)C(O)C(OC1OC(CO)C(O)C(O)C1O)C(O)CO.[NH-]C1CCCCC1[NH-].[Pt+2]` (configuration not stated) was run?
Answer: The T/C was 113 % of control.

Question: And the T/C (endpoint: median survival time, dose: 6.25 mg/kg/injection, schedule: Q04DX003 (ip), vehicle: saline)?
Answer: Its T/C is 121 % of control.

Question: And the T/C (endpoint: median survival time, dose: 12.5 mg/kg/injection, schedule: Q04DX003 (ip), vehicle: saline)?
Answer: Its T/C is 162 % of control.

Question: What about the T/C (endpoint: median survival time, dose: 25.0 mg/kg/injection, schedule: Q04DX003 (ip), vehicle: saline) of the same compound?
Answer: The T/C was 195 % of control.

Question: And the T/C (endpoint: median survival time, dose: 50.0 mg/kg/injection, schedule: Q04DX003 (ip), vehicle: saline)?
Answer: Its T/C is 158 % of control and 365 % of control.

Question: And the T/C (endpoint: median survival time, dose: 200.0 mg/kg/injection, schedule: Q04DX003 (ip), vehicle: saline)?
Answer: Its T/C is 119 % of control.

Question: With `CCOc1ccc(-n2c(=O)c(N=Nc3ccccc3)c(O)n(-c3ccc(C)cc3)c2=S)cc1` as the compound, how does the T/C (endpoint: mean survival time, dose: 100.0 mg/kg/injection, schedule: Q01DX001 (ip), vehicle: saline with Tween-80) read?
Answer: The T/C was 97 % of control.

Question: And the T/C (endpoint: mean survival time, dose: 200.0 mg/kg/injection, schedule: Q01DX001 (ip), vehicle: saline with Tween-80)?
Answer: Its T/C is 89 % of control.

Question: What does the source list for `CCCCC1CCCCC1`?
Answer: T/C [1]: 95 % of control; T/C [2]: 100 % of control; T/C [3]: 90 % of control

Question: Which T/C (endpoint: mean survival time, dose: 100.0 mg/kg/injection, schedule: Q01DX009 (ip), vehicle: saline with Tween-80) does the source give for `Clc1ccc2c(c1)Cc1cc(N(CCBr)CCBr)ccc1-2` here?
Answer: The T/C was 104 % of control.

Question: What about the T/C (endpoint: mean survival time, dose: 200.0 mg/kg/injection, schedule: Q01DX009 (ip), vehicle: saline with Tween-80) of the same compound?
Answer: Its T/C is 106 % of control.

Question: What about the T/C (endpoint: mean survival time, dose: 400.0 mg/kg/injection, schedule: Q01DX009 (ip), vehicle: saline with Tween-80) of the same compound?
Answer: The T/C was 110 % of control.

Question: With `CCCCNC1=C(C)C(=O)C2=C(C1=O)C(COC(N)=O)C1(OC)C3NC3CN21` (configuration not stated) as the compound, how does the T/C (endpoint: mean survival time, dose: 6.3 mg/kg/injection, schedule: Q01DX001 (ip), vehicle: carboxymethylcellulose (CMC)) read?
Answer: The T/C was 102 % of control.

Question: What about the T/C (endpoint: mean survival time, dose: 9.5 mg/kg/injection, schedule: Q01DX001 (ip), vehicle: carboxymethylcellulose (CMC)) of the same compound?
Answer: Its T/C is 118 % of control.

Question: What about the T/C (endpoint: mean survival time, dose: 14.25 mg/kg/injection, schedule: Q01DX001 (ip), vehicle: carboxymethylcellulose (CMC)) of the same compound?
Answer: The T/C was 102 % of control.

Question: Which results are given for `C[n+]1c(-c2ccc(NC(=O)c3ccc(C(=O)Nc4ccc(-c5cn6ccccc6[n+]5C)cc4)cc3)cc2)cn2ccccc21`?
Answer: T/C (endpoint: median survival time, dose: 5.4 mg/kg/injection, schedule: Q01DX005 (ip), vehicle: saline with Tween-80): 200 % of control; T/C (endpoint: median survival time, dose: 6.25 mg/kg/injection, schedule: Q01DX005 (ip), vehicle: saline with Tween-80): 168 % of control; T/C (endpoint: median survival time, dose: 9.0 mg/kg/injection, schedule: Q01DX005 (ip), vehicle: saline with Tween-80): 211 % of control; T/C (endpoint: median survival time, dose: 12.5 mg/kg/injection, schedule: Q01DX005 (ip), vehicle: saline with Tween-80): 200 % of control; T/C (endpoint: median survival time, dose: 15.0 mg/kg/injection, schedule: Q01DX005 (ip), vehicle: saline with Tween-80): 352 % of control; T/C (endpoint: median survival time, dose: 25.0 mg/kg/injection, schedule: Q01DX005 (ip), vehicle: saline with Tween-80): 312 % of control and 341 % of control; T/C (endpoint: median survival time, dose: 42.0 mg/kg/injection, schedule: Q01DX005 (ip), vehicle: saline with Tween-80): 152 % of control; T/C (endpoint: median survival time, dose: 100.0 mg/kg/injection, schedule: Q01DX005 (ip), vehicle: saline with Tween-80): 86 % of control; T/C (endpoint: median survival time, dose: 116.0 mg/kg/injection, schedule: Q01DX005 (ip), vehicle: saline with Tween-80): 109 % of control

Question: With `N/C(=N/N=C/c1ccc(O)cc1)N[N+](=O)[O-]` as the compound, how does the T/C (endpoint: mean survival time, dose: 100.0 mg/kg/injection, schedule: Q04DX003 (ip), vehicle: Klucel (hydroxypropylcellulose) (HPC)) read?
Answer: Its T/C is 92 % of control.

Question: And the T/C (endpoint: mean survival time, dose: 200.0 mg/kg/injection, schedule: Q04DX003 (ip), vehicle: Klucel (hydroxypropylcellulose) (HPC))?
Answer: Its T/C is 86 % of control.

Question: What about the T/C (endpoint: mean survival time, dose: 400.0 mg/kg/injection, schedule: Q04DX003 (ip), vehicle: Klucel (hydroxypropylcellulose) (HPC)) of the same compound?
Answer: The T/C was 92 % of control.

Question: With `C1OC2OC3OCOC3C2O1` (configuration not stated) as the compound, how does the T/C [1] read?
Answer: The T/C was 101 % of control.

Question: What about the T/C [2] of the same compound?
Answer: The T/C was 95 % of control.

Question: And the T/C [3]?
Answer: Its T/C is 95 % of control.

Question: What does the source list for `CC(=O)Nc1ccc([N+](=O)[O-])cc1[N+](=O)[O-]`?
Answer: T/C [1]: 100 % of control; T/C [2]: 102 % of control

Question: What does the source list for `Cc1cc2c(ccc3c2ccc2cccc(C)c23)c2ccccc12`?
Answer: T/C (endpoint: mean survival time, dose: 75.0 mg/kg/injection, schedule: Q01DX001 (ip), vehicle: saline): 95 % of control; T/C (endpoint: mean survival time, dose: 150.0 mg/kg/injection, schedule: Q01DX001 (ip), vehicle: saline): 88 % of control; T/C (endpoint: mean survival time, dose: 300.0 mg/kg/injection, schedule: Q01DX001 (ip), vehicle: saline): 94 % of control

Question: What does the source list for `CCCCCCCCCCCCSC1=C(Cl)C(=O)C(OC)=C(OC)C1=O`?
Answer: T/C (endpoint: mean survival time, dose: 6.25 mg/kg/injection, schedule: Q01DX009 (ip), vehicle: saline with Tween-80): 91 % of control; T/C (endpoint: mean survival time, dose: 12.5 mg/kg/injection, schedule: Q01DX009 (ip), vehicle: saline with Tween-80): 94 % of control; T/C (endpoint: mean survival time, dose: 25.0 mg/kg/injection, schedule: Q01DX009 (ip), vehicle: saline with Tween-80): 95 % of control; T/C [4]: 93 % of control

Question: Which T/C (endpoint: mean survival time, dose: 200.0 mg/kg/injection, schedule: Q01DX001 (ip), vehicle: saline) does the source give for `Nc1ncc2c(n1)SCC2` here?
Answer: Its T/C is 119 % of control.

Question: How did the T/C (endpoint: mean survival time, dose: 3.12 mg/kg/injection, schedule: Q01DX009 (ip), vehicle: saline) turn out when `OCC1OC(n2cnc3c([Se]Cc4ccccn4)ncnc32)C(O)C1O` (configuration not stated) was run?
Answer: Its T/C is 102 % of control.

Question: And the T/C (endpoint: mean survival time, dose: 6.25 mg/kg/injection, schedule: Q01DX009 (ip), vehicle: saline)?
Answer: The T/C was 113 % of control.

Question: And the T/C (endpoint: mean survival time, dose: 12.5 mg/kg/injection, schedule: Q01DX005 (ip), vehicle: saline)?
Answer: The T/C was 100 % of control.

Question: What about the T/C (endpoint: mean survival time, dose: 12.5 mg/kg/injection, schedule: Q01DX009 (ip), vehicle: saline) of the same compound?
Answer: The T/C was 111 % of control.

Question: With `CC(=O)Nc1ncc2nc(C)c(C)nc2n1` as the compound, how does the T/C [4] read?
Answer: Its T/C is 98 % of control.
